Data on two compounds can be found in patent US9951314B2, “Differentiation of human embryonic stem cells” (Janssen Biotech, Inc., priority 2010, dated 2018).

SMILES strings stand for the structures.

The subject of series [1] is human embryonic stem (hES) cell line H1. To be noted: MCDB-131 with 3.7 g/l versus 1 g/l bicarbonate.
Protocol: Cells of the human embryonic stem (hES) cell line H1 at passage 46 (p46) were seeded as cell colonies to [sequence] (1:30 dilution) coated dishes at a 1 to 3 passage ratio by lifting cells with Dispase (Catalog #17105-041, Invitrogen, CA) and plating the cells in MEF-CM with 20 ng/ml of FGF2. The media was changed daily with fresh MEF-CM with 20 ng/ml of FGF2, until initiation of differentiation into definitive endoderm (DE) as follows: • a. MCDB-131 (Catalog #10372-019, Invitrogen, CA) medium supplemented with 2% fatty acid-free BSA (Catalog #68700, Proliant, IA), 1× GlutaMax™ (Catalog #35050-079, Invitrogen, Ca) and 100 ng/ml activin A (R&D Systems, MN) plus 20 ng/ml WNT-3a (Catalog #1324-WN-002, R&D Systems, MN) for one day, followed by treatment with MCDB-131 supplemented with 2% BSA, GlutaMax™, and 100 ng/ml activin A each day for an additional three days; or • b.
At day 4, samples were collected for FACS and gene expression analysis using real-time PCR, and counted by ViaCount® (Guava®, Millipore, Billerica, Mass.).
Series [2] has as its system human embryonic stem cell line H1. The series is described as follows: Differentiation of H1 cells to definitive endoderm in MCDB-131 with added glucose; FACS, real-time PCR, ViaCount at day 4 (Example 2). It counts as cell-based. As for the experimental part: Cells of the human embryonic stem cell line H1 at passage 41 (p41) were lifted by TrypLE (Catalog #12604-013, Invitrogen, CA) and seeded as single cells at a density of 100,000 cells/cm^2 on MATRIGEL® coated dishes (1:30 dilution) in MEF-CM (mouse embryonic fibroblast conditioned media) supplemented with 20 ng/ml of FGF2 (Catalog #100-18B, PeproTech, NJ) and 10 μM of Y-27632 (a Rho Kinase Inhibitor, Catalog #Y0503, Sigma, MO). […] The cultures were differentiated into cells expressing markers characteristic of the definitive endoderm lineage 72 hrs post as follows: • a. […] MCDB-131 medium supplemented with 2% BSA, sodium bicarbonate, GlutaMax™, 100 ng/ml activin A, and either 0, 5, 10, 15, 20, or 25 mM of glucose for an additional three days.
However, these increases in cell number and CXCR4 were offset by a reduction in total cell viability (FIG. 2B).
These clustered cells were subsequently less evenly dispersed on the culture surface than populations of cells cultured in the basal level of glucose.

The test system is the same in series [3]. The series is described as follows: Differentiation of H1 cells to definitive endoderm in DMEM with low or high glucose; flow cytometry and qRT-PCR (Example 2). Format: cell-based. To be noted: for cells positive for CXCR4: flow cytometry. As for the experimental part: Similar glucose related effects on differentiation were also observed in cultures differentiated with DMEM containing either 5.5 mM (low) or 25 mM (high) glucose concentration (Cat #s 10567-014 and 21063-029, Invitrogen, CA). As described above, for controls, cells were seeded as single cells, cultured 3 days in MEF conditioned media and differentiated in MCDB-131 with 5.5 mM or 25 mM glucose supplemented media, or in DMEM high or low glucose media supplemented with 2% fatty acid free BSA, 100 ng/ml activin A, and 20 ng/ml WNT-3a on the first day, and 2% fatty acid free BSA and 100 ng/ml activin A for the next three days with daily media change. Similar to results with MCDB-131 media, where elevated glucose inhibits definitive endoderm formation as compared to low glucose media treated cells, we observed that a high glucose concentration in DMEM reduced hES cell differentiation. By flow cytometry, following differentiation to definitive endoderm, 88.6% of cells were positive for CXCR4 in media containing 5.5 mM glucose versus 80% CXCR4 positive cells in media containing 25 mM glucose. Additionally, markers of differentiation to definitive endoderm as measured by qRT-PCR (SOX17) were decreased while markers of undifferentiated cells (OCT4) or alternative differentiation fates (CDX2) were increased (FIG. 5) in cells fed media containing high glucose versus those fed low glucose media. This effect was due at least in part to the pH of the media as we noted that over the four day differentiation, media pH dropped after 48 hours of differentiation day. Furthermore, the higher the starting and ending pH of culture media (8.1>pH>7.6) (FIG. 6) during definitive endoderm formation, the more complete the conversion to definitive endoderm.

[4] abbreviates: increased glucose concentration, clustered cells, real-time PCR.
Setting [5] is: high glucose versus low glucose media.

Take `O=C([O-])O.[Na+]` [Sodium Bicarbonate]: in series [1], the CD9 expression levels entry is recorded as “lower” and the CXCR4 expression entry is given as “significantly higher”.
For `O=C[C@H](O)[C@@H](O)[C@H](O)[C@H](O)CO` [glucose], the CXCR4 expression result in series [2] (additional 5 mM glucose (10.5 mM final), MCDB-131, day 4) is on record as “modest increase”. In addition, in series [2] (additional 10 mM glucose (15.5 mM final), MCDB-131, day 4), the cell number entry was “modest increase”. The SOX17 positive cells result in series [2] (basal level of glucose (5.5 mM), MCDB-131) was “almost every cell in the culture was SOX17 positive”. Also, in series [2] (setting [4]), the CD9 expression entry was “slight increase”, the “MNX1 (HLXB9) gene expression” value is listed as “decrease”, the OCT4 expression result is on record as “slight increase” and the SOX7 expression result is listed as “slight increase”. The total cell viability entry in series [2] (supplemented glucose (10.5 to 15.5 mM final), MCDB-131, day 4) is “reduction”. Moreover, in series [3] (setting [5]), the “CDX2 expression (qRT-PCR)” value is “increased”, the “OCT4 expression (qRT-PCR)” value is given as “increased” and the “SOX17 expression (qRT-PCR)” value was “decreased”. Also, the “cells positive for CXCR4” value in series [3] (media containing 5.5 mM glucose) was found to be 88.6%. Besides, in series [3] (media containing 25 mM glucose), the “cells positive for CXCR4” value came out at 80%.
